Laboratory results taken from patent EP0335369A2, “New anthracycline derivatives and processes for the preparation of the same” (priority 1988, dated 1989).
Converted amounts (≈) assume the structure as drawn. Where two headings read alike, the source gives them in different places.

Legend:
[1] = Solubility in phosphate buffer solution of pH 7.4 at room temperature; type: physicochemical; settings: for solubility: room temperature
Leukemia L-1210 cells [2] = experiment: Test 3: antitumor activity against leukemia induced in CDF1 mice by Leukemia L-1210 cells (procedure of Test 1 repeated); type: in vivo; settings: intraperitoneally once per day for 9 consecutive days, observation 60 days
Description: Antitumor activities against leukemia in CDF1 mice as induced by mouse leukemia, Leukemia L-1210 cells
To evaluate the antitumor effects of the compounds of the formula (I') according to the sixth aspect of this invention against experimental tumors in animals, the procedure of Test 1 given hereinbefore is repeated. Thus, CDF1 mice were intraperitoneally transplanted with cells of Leukemia L-1210 (at a dose of 1 x 10^5 cells/mouse). After an elapsed time of 24 hours from the tumor transplantation, a test compound of the formula (I') of the sixth aspect invention to be evaluated was administered intraperitoneally for 9 consecutive days once per day. Observation was made for 60 day, where survival days of each mouse tested were recorded. In comparison with the control test wherein mice were treated with the administration of physiological saline alone, the increase (%) in the life-span of the treated mice was calculated as T/C %, where T is the mean survival days of the treated animals and C is the mean survival days of the untreated control animals. For the comparison, daunomycin and adriamycin were also tested in the same manner.

Leukemia L-1210 cells [3] = experiment: Test 1: antitumor activity against leukemia induced in CDF1 mice by Leukemia L-1210 cells (life-span increase); type: in vivo; settings: intraperitoneally once per day for 9 consecutive days, observation 60 days
Description: Antitumor activities against leukemia in CDF, mice as induced by mouse leukemia, Leukemia L-1210 cells
After an elapsed time of 24 hours, a compounds of the formula (I) of this invention to be tested was administered intraperitoneally for 9 consecutive days once per day. Observation was made for 60 days, where survival days of each mouse tested were recorded. In comparison with the control test wherein mice were treated with the administration of physiological saline alone, the increase (%) in the life-span of the treated mice was calculated as T/C %, where T is the mean survival days of the treated animals and C is the mean survival days of the untreated control animals. For the comparison, daunomycin and adriamycin were also tested in the same manner.

[4] = aqueous buffer, compounds (Ic), phosphate buffer solution of pH 7.4 (0.05 M KH2PO4-NaOH), read-out: Solubility

With “4-demethoxy-7-O-(2,6-dideoxy-2-fluoro-α-L-talopyranosyl)adriamycinone 14-0-hemisuberate [Example 19]” the “solubility” value ([1]; compounds (I'-c) or (I'-d), phosphate buffer solution of pH 7.4 (0.05M KH2PO4-NaOH)) was less than 1 mg/mL, the “solubility in the phosphate buffer solution (in words)” value ([1]; phosphate buffer solution (0.05 M KH2PO4-NaOH) at pH 7.4) was “scarcely soluble” and the “% Increase in life-span (T/C, %)” value (Leukemia L-1210 cells [2]; Dose 0.04 mg/kg/day) was 93%. The “% Increase in life-span (T/C, %)” value (Leukemia L-1210 cells [2]; Dose 0.08 mg/kg/day) was 96%, the “% Increase in life-span (T/C, %)” value (Leukemia L-1210 cells [2]; Dose 0.15 mg/kg/day) was 138% and the “% Increase in life-span (T/C, %)” value (Leukemia L-1210 cells [2]; Dose 0.3 mg/kg/day) was 175%. The “% Increase in life-span (T/C, %)” value (Leukemia L-1210 cells [2]; Dose 0.6 mg/kg/day) was 245% and the “% Increase in life-span (T/C, %)” value (Leukemia L-1210 cells [2]; Dose 1.25 mg/kg/day) was 158%.

With `COc1cccc2c1C(=O)c1c(O)c3c(c(O)c1C2=O)C[C@@](O)(C(C)=O)C[C@@H]3O[C@@H]1O[C@@H](C)[C@@H](O)[C@@H](O)[C@H]1F` [7-0-(2,6-Dideoxy-2-fluoro-α-L-talopyranosyl) daunomycinone, reference compound] the “% Increase in life-span (T/C, %)” value (Leukemia L-1210 cells [3]; Dose 0.15 mg/kg/day) was 105%, the “% Increase in life-span (T/C, %)” value (Leukemia L-1210 cells [3]; Dose 0.3 mg/kg/day) was 105% and the “% Increase in life-span (T/C, %)” value (Leukemia L-1210 cells [3]; Dose 0.6 mg/kg/day) was 118%. The “% Increase in life-span (T/C, %)” value (Leukemia L-1210 cells [3]; Dose 1.25 mg/kg/day) was 171%, the “% Increase in life-span (T/C, %)” value (Leukemia L-1210 cells [3]; Dose 2.5 mg/kg/day) was 217% and the “% Increase in life-span (T/C, %)” value (Leukemia L-1210 cells [3]; Dose 5 mg/kg/day) was 184%. The “% Increase in life-span (T/C, %)” value (Leukemia L-1210 cells [2]; Dose 0.15 mg/kg/day) was 105%, the “% Increase in life-span (T/C, %)” value (Leukemia L-1210 cells [2]; Dose 0.3 mg/kg/day) was 105% and the “% Increase in life-span (T/C, %)” value (Leukemia L-1210 cells [2]; Dose 0.6 mg/kg/day) was 118%. The “% Increase in life-span (T/C, %)” value (Leukemia L-1210 cells [2]; Dose 1.25 mg/kg/day) was 171%, the “% Increase in life-span (T/C, %)” value (Leukemia L-1210 cells [2]; Dose 2.5 mg/kg/day) was 217% and the “% Increase in life-span (T/C, %)” value (Leukemia L-1210 cells [2]; Dose 5 mg/kg/day) was 184%.

For `COc1cccc2c1C(=O)c1c(O)c3c(c(O)c1C2=O)C[C@@](O)(C(=O)CO)C[C@@H]3O[C@H]1C[C@H](N)[C@H](O)[C@H](C)O1` [Adriamycin, reference compound], the “% Increase in life-span (T/C, %)” value (Leukemia L-1210 cells [3]; Dose 0.15 mg/kg/day) was 123%, the “% Increase in life-span (T/C, %)” value (Leukemia L-1210 cells [3]; Dose 0.3 mg/kg/day) was 136% and the “% Increase in life-span (T/C, %)” value (Leukemia L-1210 cells [3]; Dose 0.6 mg/kg/day) was 142%. The “% Increase in life-span (T/C, %)” value (Leukemia L-1210 cells [3]; Dose 1.25 mg/kg/day) was 222%, the “% Increase in life-span (T/C, %)” value (Leukemia L-1210 cells [3]; Dose 2.5 mg/kg/day) was 228% and the “% Increase in life-span (T/C, %)” value (Leukemia L-1210 cells [3]; Dose 5 mg/kg/day) was 191%. For the same molecule, the “% Increase in life-span (T/C, %)” value (Leukemia L-1210 cells [2]; Dose 0.15 mg/kg/day) was 123%, the “% Increase in life-span (T/C, %)” value (Leukemia L-1210 cells [2]; Dose 0.3 mg/kg/day) was 136% and the “% Increase in life-span (T/C, %)” value (Leukemia L-1210 cells [2]; Dose 0.6 mg/kg/day) was 142%. For the same molecule, the “% Increase in life-span (T/C, %)” value (Leukemia L-1210 cells [2]; Dose 1.25 mg/kg/day) was 222%, the “% Increase in life-span (T/C, %)” value (Leukemia L-1210 cells [2]; Dose 2.5 mg/kg/day) was 228% and the “% Increase in life-span (T/C, %)” value (Leukemia L-1210 cells [2]; Dose 5 mg/kg/day) was 191%.

With `COc1cccc2c1C(=O)c1c(O)c3c(c(O)c1C2=O)C[C@@](O)(C(C)=O)C[C@@H]3O[C@H]1C[C@H](N)[C@H](O)[C@H](C)O1` [Daunomycin, reference compound] the “% Increase in life-span (T/C, %)” value (Leukemia L-1210 cells [3]; Dose 0.15 mg/kg/day) was 130%, the “% Increase in life-span (T/C, %)” value (Leukemia L-1210 cells [3]; Dose 0.3 mg/kg/day) was 133% and the “% Increase in life-span (T/C, %)” value (Leukemia L-1210 cells [3]; Dose 0.6 mg/kg/day) was 166%. The “% Increase in life-span (T/C, %)” value (Leukemia L-1210 cells [3]; Dose 1.25 mg/kg/day) was 193%, the “% Increase in life-span (T/C, %)” value (Leukemia L-1210 cells [3]; Dose 2.5 mg/kg/day) was 151% and the “% Increase in life-span (T/C, %)” value (Leukemia L-1210 cells [3]; Dose 5 mg/kg/day) was 117%. For the same molecule, the “% Increase in life-span (T/C, %)” value (Leukemia L-1210 cells [2]; Dose 0.15 mg/kg/day) was 130%, the “% Increase in life-span (T/C, %)” value (Leukemia L-1210 cells [2]; Dose 0.3 mg/kg/day) was 133% and the “% Increase in life-span (T/C, %)” value (Leukemia L-1210 cells [2]; Dose 0.6 mg/kg/day) was 166%. The “% Increase in life-span (T/C, %)” value (Leukemia L-1210 cells [2]; Dose 1.25 mg/kg/day) was 193%, the “% Increase in life-span (T/C, %)” value (Leukemia L-1210 cells [2]; Dose 2.5 mg/kg/day) was 151% and the “% Increase in life-span (T/C, %)” value (Leukemia L-1210 cells [2]; Dose 5 mg/kg/day) was 117%.

Work on `COc1cccc2c1C(=O)c1c(O)c3c(c(O)c1C2=O)C[C@@](O)(C(=O)COC(=O)CCC(=O)O)C[C@@H]3O[C@@H]1O[C@@H](C)[C@H](O)[C@@H](O)[C@H]1F` [Example 6, 7-O-(2,6-dideoxy-2-fluoro-α-L-mannopyranosyl)adriamycinone 14-0-hemisuccinate] yielded a solubility [1, 4] of 25 mg/mL (≈ 37.7 mM).

With `COc1cccc2c1C(=O)c1c(O)c3c(c(O)c1C2=O)C[C@@](O)(C(=O)COC(=O)CCCC(=O)O)C[C@@H]3O[C@@H]1O[C@@H](C)[C@H](O)[C@@H](O)[C@H]1F` [Example 7, 7-0-(2,6-dideoxy-2-fluoro-a-L-. mannopyranosyl)adriamycinone 14-0-hemiglutarate] the solubility [1, 4] was 28 mg/mL (≈ 41.4 mM).

With `COc1cccc2c1C(=O)c1c(O)c3c(c(O)c1C2=O)C[C@@](O)(C(=O)COC(=O)CCCCC(=O)O)C[C@@H]3O[C@@H]1O[C@@H](C)[C@H](O)[C@@H](O)[C@H]1F` [Example 8, 7-0-(2,6-dideoxy-2-fluoro-a-L-mannopyranosyl)adriamycinone 14-0-hemiadipate] the solubility [1, 4] was 32 mg/mL (≈ 46.3 mM).
